Measured values from patent publication US20120220537A1, “9-AMINOACRIDINE DERIVATIVES, THEIR PREPARATION AND USES” (ARIEL-UNIVERSITY RESEARCH AND DEVELOPMENT COMPANY LTD., priority 2009, published 2012).
Entries after “also recorded” stand apart in the source; their conditions may differ. Like-named read-outs stand apart in the source and are kept apart here.

What was measured:
Assay type in all cases: cell-based
[1] = tested on: HT29 (colon carcinoma); test: In vitro cytotoxicity, neutral red uptake; conditions: 24 h treatment, read-out: anticancer activity (IC50) HT29
Experimental: (§1) Cells (250000/well) were cultured in 24-well plates for 24 h to 70-80% confluence or cells (20000/well) were cultured in 96-well plates for 24 h or overnight to 70-80% confluence. Four 24-well plates and one 96-well plate have been seeded. The following concentrations of the compounds were examined (each one in triplicate)-0 microgram/μl, 0.05 microgram/ml, 0.5 microgram/ml, 5 microgram/ml, 50 microgram/ml. The volume of wells in 24-well plates was 0.5 ml while that of 96-well plates was 0.1 ml. After the 24 h treatment the culture medium in the wells were replaced with 0.5 ml fresh medium containing 1:100 dilution of neutral red (10 microliters/1 ml). The plates were incubated for 2 h in a dark in culture incubator. The medium was aspirated and the cells washed twice with 0.5/0.1 ml of solution containing 1% CaCl2 and 0.5% formaldehyde. The dye was extracted from cells upon addition of 0.5/0.1 ml 1% glacial acetic acid in 50% ethanol with 10 min incubation at room temperature. The absorbance was measured spectrophotometrically at a wavelength of 540 nm. The background absorbance measurement of the multiwell plates was done at 690 nm and subtract from 540 nm.

[2] = tested on: OVCAR8 (ovarian cancer); test: In vitro cytotoxicity, neutral red uptake; conditions: 24 h treatment, read-out: anticancer activity (IC50) OVCAR8
Experimental: as §1

[3] = tested on: MDM-MD-A31 (renal cancer); test: In vitro cytotoxicity, neutral red uptake; conditions: MDM-MD-A31 cells, 24 h treatment, read-out: anticancer activity (IC50) MDM-MD-A31
Experimental: as §1

[4] = tested on: cancer cell lines MDM-MD-A31, MCF-7, HT29, OVCAR8, NCI-ADR, MCF-7mito and H1299; test: In vitro cytotoxicity, all tested cancer cell lines; conditions: statement in words
Experimental: as §1

[5] = tested on: H1299 (lung carcinoma); test: In vitro cytotoxicity, neutral red uptake; conditions: 24 h treatment, read-out: anticancer activity (IC50) H1299
Experimental: as §1

[6] = tested on: MCF-7mito (mitoxantrone selected and associated with MDR phenomena breast cancer); test: In vitro cytotoxicity, neutral red uptake; conditions: read-out: anticancer activity (IC50) MCF7 mito
Experimental: as §1

[7] = tested on: MCF-7 (breast cancer); test: In vitro cytotoxicity, neutral red uptake; conditions: MCF7 wt cells, 24 h treatment, read-out: anticancer activity (IC50) MCF7 wt
Experimental: as §1

[8] = tested on: NCI-ADR (associated with multidrug resistance (MDR) phenomena ovarian cancer); test: In vitro cytotoxicity, neutral red uptake; conditions: NCIADR cells, 24 h treatment, read-out: anticancer activity (IC50) NCIADR
Experimental: as §1

[9] = Homo sapiens, HT-29, HT29 cells
[10] = Homo sapiens, OVCAR-8, OVCAR8 cells
[11] = Homo sapiens, NCI-H1299, H1299 cells
[12] = Homo sapiens, MCF7 mito cells, 24 h treatment, neutral red

Row | Compound | IC50 [1, 9] | IC50 [2, 10] | IC50 [3] | IC50 [5, 11] | IC50 [6, 12] | IC50 ([7]; Homo sapiens) | IC50 ([8]; Homo sapiens, NCI/ADR-RES) | other results
1 | COc1cc([N+](=O)[O-])ccc1Nc1c2ccccc2nc2ccccc12 [Compound 20, N-(2-methoxy-4-nitrophenyl)acridin-9-amine] | 1.2 µM | 0.6 µM | 0.1 µM |  |  |  |  | 
2 | CCOC1=C(Nc2c3ccccc3nc3ccccc23)C(=O)c2c(O)ccc(O)c2C1=O [Compound 41, 2-(acridin-9-ylamino)-3-ethoxy-5,8-dihydroxy-naphthoquinone] | 1.1 µM |  | 0.06 µM | 0.14 µM | 0.5 µM |  |  | cytotoxicity compared with reference or other tested compounds [4]: greater activity against all above mentioned cell lines than the anticancer drug amsacrine; also recorded: the most potent among the tested compounds
3 | O=[N+]([O-])c1ccccc1Nc1c2ccccc2nc2ccccc12 [Compound 10, N-(2-nitrophenyl)acridin-9-amine] | 74.2 µM | > 100 µM | > 100 µM | > 100 µM | 46.7 µM | > 100 µM | 40.3 µM | 
4 | O=[N+]([O-])c1ccc(O)cc1CNc1c2ccccc2nc2ccccc12 [Compound 4, N-(2-nitro-5-hydroxy-benzyl)acridin-9-amine] | 7.14 µM | 15.4 µM | 75.6 µM | > 100 µM | 18.4 µM | 58.6 µM | 86.4 µM | 
5 | NCCCCC(NC(=O)c1ccc(Nc2c3ccccc3nc3ccccc23)c([N+](=O)[O-])c1)C(N)=O (stereo not drawn) [Compound 46, 4-(acridin-9-ylamino)-N-(1,6-diamino-1-oxohex-2-yl)-3-nitro-benzamide] | 7.14 µM | 15.4 µM | 75.6 µM | > 100 µM | 18.4 µM | 58.6 µM | 86.4 µM | 
6 | Oc1ccc2ccccc2c1CNc1c2ccccc2nc2ccccc12 [Compound 8, N-(2-hydroxy-naphthylmethyl)acridin-9-amine] | 2.6 µM | 9.1 µM | 13.2 µM | 62.6 µM | 1.8 µM | 14.1 µM | 42.3 µM | 
7 | O=C1C(Cl)=C(Nc2c3ccccc3nc3ccccc23)C(=O)c2ccccc21 [Compound 39, 2-(acridin-9-ylamino)-3-chloronaphthoquinone] |  | 1.2 µM | 0.15 µM |  | 0.8 µM |  |  | 
8 | O=[N+]([O-])c1cc([N+](=O)[O-])c(Nc2c3ccccc3nc3ccccc23)cc1F [Compound 18, N-(2,4-dinitro-5-fluorophenyl)acridin-9-amine] |  |  | 0.3 µM |  |  |  |  | 
9 | O=[N+]([O-])c1cccnc1Nc1c2ccccc2nc2ccccc12 [Compound 21, N-(3-nitropyrid-2-yl)acridin-9-amine] |  |  | 0.8 µM | 0.7 µM | 1.6 µM |  |  | 
10 | O=C(O)c1ccccc1CNc1c2ccccc2nc2ccccc12 [Compound 1, 2-(acridin-9-ylaminomethyl)benzoic acid] | 1.2 µM | 0.71 µM | 10.3 µM | 74.3 µM | 0.76 µM | 20.2 µM | 12.2 µM | cytotoxicity compared with reference or other tested compounds [4]: more cytotoxic than the corresponding 9-aminoacridine
11 | O=C1C(Br)=C(Br)C(=O)C(Nc2c3ccccc3nc3ccccc23)=C1Br [Compound 38, 2-(acridin-9-ylamino)-3,5,6-tribromobenzoquinone] |  | 3.7 µM |  |  |  |  |  | 
12 | Nc1c2ccccc2nc2ccccc12 [9-aminoacridine] | 2.25 µM | 1.7 µM | 1.5 µM | 32.8 µM | 163 µM | 11.2 µM | 21 µM | 
13 | amsacrine [reference compound] |  |  | 17.2 µM |  |  |  |  | IC50 ([1]; HT29 cells): 2.2 µM; IC50 [7]: 19.8 µM; IC50 ([5]; H1299 cells): 119 µM; IC50 ([2]; OVCAR8 cells): 21.9 µM; IC50 [8]: 16.1 µM; IC50 ([6]; MCF7 mito cells, 24 h treatment, neutral red): 1.5 µM
14 | O=C(O)c1ccc(Nc2c3ccccc3nc3ccccc23)c([N+](=O)[O-])c1 [Compound 13, 4-(acridin-9-ylamino)-3-nitrobenzoic acid] | 3.6 µM | 6.5 µM | 0.6 µM | 86.4 µM | 7.2 µM | 11.6 µM | 54.2 µM | cytotoxicity compared with reference or other tested compounds [4]: more cytotoxic than the corresponding 9-aminoacridine
15 | O=[N+]([O-])c1ccc(Nc2c3ccccc3nc3ccccc23)c([N+](=O)[O-])c1 [Compound 12, N-(2,4-dinitrophenyl)acridin-9-amine] | 71.3 µM | 33.8 µM | > 100 µM | > 100 µM |  | 89.1 µM | 15.4 µM | IC50 ([6]; Homo sapiens, MCF7, 24 h): 7.2 µM
16 | NC(=O)c1ccc(Nc2c3ccccc3nc3ccccc23)c([N+](=O)[O-])c1 [Compound 14, 4-(acridin-9-ylamino)-3-nitrobenzamide] | 3.6 µM |  | 0.6 µM |  | 7.2 µM |  |  | 
17 | O=C(NC(CO)C(=O)O)c1ccc(Nc2c3ccccc3nc3ccccc23)c([N+](=O)[O-])c1 (stereo not drawn) [Compound 42, (2-(4-(acridin-9-ylamino)-3-nitrobenzamido)-3-hydroxypropanoic acid)] | 2.2 µM |  | 0.4 µM |  | 4.5 µM |  |  | 
